Among the data in patent US7973047B2, “Beta-Secretase modulators and methods of use” (Amgen Inc., priority 2010, dated 2011) are IC50 values, retold here.

pIC50: −log10 of the molar value.

The first assay relates to Aβ40 in conditioned medium of cells stably expressing Amyloid Precursor Protein (APP). Description: BACE cell-based assay: Aβ40 in conditioned medium by sandwich ELISA. The settings on record: cell based assay data of Table 4; unit inferred; read-out: Cell Assay. A digest of the protocol:
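Aβ40 in conditioned medium was read by time-resolved fluorescence sandwich ELISA (capture pAb40, detection biotinylated 6E10, 4° C incubations). Compounds were applied for 24 h to cells stably expressing APP, at 10 doses from 100 or 10 μM top, 0.1% DMSO. IC50 derived from percent of control.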
For orientation: In an ELISA, binding on a coated surface is turned into a signal by an enzyme label.
Take `CC(=O)N[C@@H](Cc1cc(F)cc(F)c1)[C@H](O)CN[C@H]1CC2(CCC2)Oc2ncc(C(F)(F)F)cc21` [compound 700, N-((1S,2R)-1-((3,5-difluorophenyl)methyl)-2-hydroxy-3-(((4′S)-6′-(trifluoromethyl)-3′,4′-dihydrospiro[cyclobutane-1,2′-pyrano[2,3-b]pyridin]-4′-yl)amino)propyl)acetamide]: the pIC50 was 5.92.
For the molecule `CC(=O)N[C@@H](Cc1ccc(F)c(F)c1)[C@H](O)CN[C@H]1CC2(CCC2)Oc2ncc(CC(C)(C)C)cc21` [compound 701], the pIC50 is 8.63.
On the same count and under the same terms, the result for `CC(=O)N[C@@H](Cc1cccc(Cl)c1)[C@H](O)CN[C@H]1CC2(CCC2)Oc2ncc(CC(C)(C)C)cc21` [compound 702] reads 8.91; that for `CC(=O)N[C@@H](Cc1ccccc1F)[C@H](O)CN[C@H]1CC2(CCC2)Oc2ncc(CC(C)(C)C)cc21` [compound 703], 8.29.
Same read-out and setting: to `CC(=O)N[C@@H](Cc1ccc(F)cc1F)[C@H](O)CN[C@H]1CC2(CCC2)Oc2ncc(CC(C)(C)C)cc21` [compound 704] belongs 7.73; to `CC#CC[C@H](NC(C)=O)[C@H](O)CN[C@H]1CC2(CCC2)Oc2ncc(CC(C)(C)C)cc21` [compound 705, N-((1S)-1-((1R)-2-(((4′S)-6′-(2,2-dimethylpropyl)-3′,4′-dihydrospiro[cyclobutane-1,2′-pyrano[2,3-b]pyridin]-4′-yl)amino)-1-hydroxyethyl)-3-pentyn-1-yl)acetamide], 6.36.
Same read-out and setting: the result for `CC(=O)N[C@@H](Cc1ccc(F)c(Cl)c1)[C@H](O)CN[C@H]1CC2(CCC2)Oc2ncc(CC(C)(C)C)cc21` [compound 706] reads 8.51; that for `CC(=O)N[C@@H](Cc1ccc(Cl)cc1)[C@H](O)CN[C@H]1CC2(CCC2)Oc2ncc(CC(C)(C)C)cc21` [compound 707], 7.90.
`CC(=O)N[C@@H](Cc1ccccc1Cl)[C@H](O)CN[C@H]1CC2(CCC2)Oc2ncc(CC(C)(C)C)cc21` [compound 708]: the pIC50 was 7.63.
On the same count and under the same terms, the result for `CC(=O)N[C@@H](Cc1ccc(F)c(N(C)C)c1)[C@H](O)CN[C@H]1CC2(CCC2)Oc2ncc(CC(C)(C)C)cc21` [compound 709] reads 8.10.
On the same count and under the same terms, the result for `CCNc1cc(C[C@H](NC(C)=O)[C@H](O)CN[C@H]2CC3(CCC3)Oc3ncc(CC(C)(C)C)cc32)ccc1F` [compound 710] reads 8.37.
In the case of `CC(=O)N[C@@H](Cc1ccc(Cl)c(Cl)c1)[C@H](O)CN[C@H]1CC2(CCC2)Oc2ncc(CC(C)(C)C)cc21` [compound 711, N-((1S,2R)-1-((3,4-dichlorophenyl)methyl)-3-(((4′S)-6′-(2,2-dimethylpropyl)-3′,4′-dihydrospiro[cyclobutane-1,2′-pyrano[2,3-b]pyridin]-4′-yl)amino)-2-hydroxypropyl)acetamide], the pIC50 is 7.53.

The assay is the same for the next values; noted with them: cell based assay data, Table 4; unit inferred; read-out: Cell Assay.
Turning to `CC(=O)N[C@@H](Cc1ccc(OC(F)(F)F)cc1)[C@H](O)CN[C@H]1CC2(CCC2)Oc2ncc(CC(C)(C)C)cc21` [compound 712], the pIC50 is 7.19.
`CC(=O)N[C@@H](Cc1ccc(F)c(Cl)c1)[C@H](O)CN[C@H]1C[C@]2(C[C@H](C)C2)Oc2ncc(CC(C)(C)C)cc21` [compound 713, N-((1S,2R)-1-((3-chloro-4-fluorophenyl)methyl)-3-(((1s,3R,4′S)-6′-(2,2-dimethylpropyl)-3-methyl-3′,4′-dihydrospiro[cyclobutane-1,2′-pyrano[2,3-b]pyridin]-4′-yl)amino)-2-hydroxypropyl)acetamide]: the pIC50 is 7.81.
As to `CC(=O)N[C@@H](Cc1ccc(Cl)cc1)[C@H](O)CN[C@H]1C[C@]2(C[C@H](C)C2)Oc2ncc(CC(C)(C)C)cc21` [compound 714, N-((1S,2R)-1-((4-chlorophenyl)methyl)-3-(((1s,3R,4′S)-6′-(2,2-dimethylpropyl)-3-methyl-3′,4′-dihydrospiro[cyclobutane-1,2′-pyrano[2,3-b]pyridin]-4′-yl)amino)-2-hydroxypropyl)acetamide], the pIC50 was 7.57.
The same measure, in the same setting: the result for `C=CCC[C@H](NC(C)=O)[C@H](O)CN[C@H]1CC2(CCC2)Oc2ncc(CC(C)(C)C)cc21` [compound 715] reads 7.39.
